The record followed here is patent publication US8669246B2, “Substituted amide compound” (Astellas Pharma Inc., priority 2009, dated 2014).

Series [1] concerns the target T1, human LPA1 (Homo sapiens, UniProt Q92633).
T1 construct: expressed in transfected cells
Nature of the series: Antagonistic action on human LPA1: inhibition of LPA-stimulated increase in intracellular calcium ion concentration in human LPA1-CHO cells. In kind it is cell-based. To be noted: LPA 100 nM, Fluo-4/FLIPR calcium signal. As to the method:
Antagonistic Action of Compound of Formula (I) on Human LPA1
The antagonistic action on a human LPA 1 was evaluated with an index of an inhibitory action on the LPA-stimulated increase in intracellular calcium ion concentration, using human LPA 1-CHO cells [cells in which human LPA1 receptors are stably expressed in CHO (dhfr gene-deficient) cell lines].
Establishment of human LPA1-CHO cells was performed based on the basic genetic engineering techniques.
The established cells were maintained by passage in a nucleic acid-free α-MEM medium (Invitrogen) containing 10% FBS, 1% penicillin/streptomycin (Invitrogen), and 100 nM methotrexate, and before experiment, the medium was replaced with a medium that had been reduced to 1% of the […] concentration, then seeded in 96-well plates to 1.5×10e^5 cells/100 μL/well, and incubated overnight.
On the day of experiment, a 0.5 μM Fluo-4 solution [a solution prepared by adding 20 mM HEPES (Sigma), […] probenecid (Nacalai Tesque), 0.05% BSA, 0.5 μM Fluo-4 AM (Dojindo Laboratories), and 0.1% Pluronic […] (Molecular Probe Co.) to a Hanks Balanced Solt Solution (Invitrogen)] was added to the cells, and Fluo-4 was loaded on the cells by incubating for 2 hours at room temperature.
After loading Fluo-4, the Fluo-4 solution was replaced with a reaction solution [a solution obtained by adding 20 mM HEPES, […] probenecid, and 0.05% BSA to a Hanks Balanced Solt Solution], and then measurement was performed using a device for measuring an intracellular calcium concentration (FLIPR tetra, Molecular Devices Inc.).
A reaction solution in which the compound of the formula (I) (with a final concentration of 0.1 nM to 10 μM) had been dissolved was added to each of the wells, the signals were measured over time for 4 minutes, then a reaction solution in which LPA (final concentration 100 nM) had been dissolved was added thereto, and the signals were measured over time for 2 minutes. The difference between the maximum and minimum response during one minute from addition of LPA was calculated. The inhibitory activity was calculated, with a response when LPA only (not including the compound) was added was taken as 0% inhibition, and a response when a reaction solution not including both of the compound and LPA was added was taken as 100% inhibition. Then the 50% inhibitory concentration was calculated as an IC50 value (nM).
Human LPA1-CHO cells used in the present test were the cells with the same sequence as described in the pamphlet of International Publication WO 99/19513 were used. Further, Ex represents Example No. as denoted below.

The test system of series [2] is LPA-induced increase in urethral pressure. Nature of the series: Inhibitory action on LPA-induced increase in urethral pressure in rats under anesthesia. In kind it is in vivo, rat (male Wistar). To be noted: Rattus norvegicus, 5 min; 0.1 mg/kg intravenous, LPA (1-oleoyl) 3 mg/kg iv after 5 minutes, anesthetized rats, vs solvent; read-out: Inhibitory rate. The protocol:
Inhibitory Action of Compound of Formula (I) on LPA-Induced Increase in Urethral Pressure in Rats Under Anesthesia (with Intravenous Administration at 0.1 mg/kg) Male Wistar rats (Charles River, 9- to 12-week old) were anesthetized with urethane (1.2 g/kg ip), and held in the supine position on an operating table kept at 37° C. The lower abdominal portion was midline-incised and the bladder was thus exposed. A small portion of the bladder apex was incised, a microchip pressure transducer (Millar) was inserted antegrade, and then placed in the urethra, and the urethral pressure was recorded continuously. In addition, a cannula for administration of a drug was placed into the femoral vein. After about 1 hour of stabilization, the compound of formula (I) (0.1 mg/kg) was administered intravenously. After 5 minutes, LPA (1-oleoyl) was administered intravenously at 3 mg/kg, and the changes in the urethral pressure were recorded. The inhibitory rates (%) of the compound of the formula (I) on the LPA-stimulated increase in the urethral pressure compared with those after administration of the solvent of the compound of the formula (I) were recorded.

T1 sequence (Q92633 whole entry): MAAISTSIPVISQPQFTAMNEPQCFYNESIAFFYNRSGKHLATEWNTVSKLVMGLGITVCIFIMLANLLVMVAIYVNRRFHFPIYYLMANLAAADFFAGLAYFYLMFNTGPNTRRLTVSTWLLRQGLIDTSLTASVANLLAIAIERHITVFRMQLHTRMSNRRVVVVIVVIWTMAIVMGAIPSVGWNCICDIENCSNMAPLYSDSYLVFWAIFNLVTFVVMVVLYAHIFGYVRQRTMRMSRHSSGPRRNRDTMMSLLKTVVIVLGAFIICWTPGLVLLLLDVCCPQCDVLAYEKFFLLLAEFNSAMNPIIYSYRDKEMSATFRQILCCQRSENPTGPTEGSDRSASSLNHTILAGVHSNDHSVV

Compound `CCNS(=O)(=O)[N-]C(=O)c1csc(CN(CCCc2ccccc2)C(=O)c2cc(OC)c(C)c(OC)c2)n1.[K+]` yielded a melting point of 203 to 205 °C.

As to `COc1ccc(C2(C(=O)N(CCCc3cccc(F)c3)Cc3nc(C(=O)[N-]S(=O)(=O)N(C)C)c(C)s3)CC2)nc1.[K+]`, the melting point was in the range of 219 to 221 °C.

On to `COc1cc(C(=O)N(CCCc2ccccc2)Cc2nc(C(=O)NS(=O)(=O)c3cccs3)cs2)cc(OC)c1C` [Example 5, 2-{[(3,5-dimethoxy-4-methylbenzoyl)(3-phenylpropyl)amino]methyl}-N-(2-thienylsulfonyl)-1,3-thiazole-4-carboxamide], for which the IC50 in series [1] is 7.8 nM.

Regarding `COc1ccc(C(O)C(=O)N(CCCc2ccccc2)Cc2nc(C(=O)NS(=O)(=O)N(C)C)c(C)s2)cn1` (stereo not drawn) [Example 28], the melting point fell in the range of 178 to 179 °C.

In the case of `COc1ccc(C2(C(=O)N(CCCc3ccccc3)Cc3nc(C(=O)NS(=O)(=O)N(C)C)c(C)s3)CC2)nc1` [Example 31], the melting point lay in the range of 125 to 126 °C.

For `COc1cc(C(=O)N(CCCc2ccccc2)Cc2csc(C(=O)NS(N)(=O)=O)n2)cc(OC)c1C` [Example 62], the melting point lay within 173 to 175 °C. In addition, the IC50 in series [1] is 11 nM.

With `CNS(=O)(=O)NC(=O)c1nc(CN(CCCc2ccccc2)C(=O)c2cc(OC)c(C)c(OC)c2)cs1` [Example 63], the inhibition in vivo at 0.1 mg/kg in series [2] is 28%.

With `COc1cc(C(=O)N(CCCc2ccccc2)Cc2nc(C(=O)NS(N)(=O)=O)cs2)cc(OC)c1C` [Example 69], the melting point was in the range of 147 to 150 °C. In addition, in series [1], the half-maximal inhibitory concentration (IC50) amounted to 8.8 nM. Also, in series [2], the inhibition in vivo at 0.1 mg/kg turned out to be 33%.

Regarding `COc1cc(C(=O)N(CCCc2ccccc2)Cc2nc(C(=O)NS(=O)(=O)Nc3ccccn3)cs2)cc(OC)c1C` [Example 79], in series [1], the IC50 was 16 nM.

Take `COc1cc(C(=O)N(CCCc2ccccc2)Cc2nc(C(=O)NS(C)(=O)=O)cs2)cc(OC)c1C` [Example 108]: the melting point fell in the range of 133 to 134 °C. In addition, the concentration for half-maximal inhibition (IC50) in series [1] was 11 nM.

In turn, `COc1cc(C(=O)N(CCCc2ccccc2)Cc2nc(C(=O)NS(C)(=O)=O)c(C)s2)cc(OC)c1C` [Example 109] came in with a melting point of 128 to 131 °C. In addition, the IC50 in series [1] stood at 22 nM.

`COc1cc(C(=O)N(CCCc2ccc(Cl)s2)Cc2nc(C(=O)NS(N)(=O)=O)cs2)cc(OC)c1C` [Example 110] came in with a melting point of 154 to 156 °C. In addition, the 50% inhibitory concentration (IC50) in series [1] worked out at 11 nM.

For the compound `COc1cc(C(=O)N(CCCc2ccc(C)o2)Cc2nc(C(=O)NS(N)(=O)=O)cs2)cc(OC)c1C` [Example 111], the IC50 in series [1] was 6.6 nM. In series [2], the inhibition in vivo at 0.1 mg/kg is 56%.

`COc1cc(C(=O)N(CCCc2ccccc2F)Cc2nc(C(=O)NS(N)(=O)=O)cs2)cc(OC)c1C` [Example 113] gave a melting point of 145 to 146 °C. Moreover, in series [1], the IC50 was 12 nM.

Consider `COc1cc(C(=O)N(CCCc2cc(F)ccc2F)Cc2nc(C(=O)NS(N)(=O)=O)cs2)cc(OC)c1C` [Example 115], for which, in series [1], the IC50 amounted to 16 nM.

Take `COc1cc(C(=O)N(CCCc2ccccc2F)Cc2nc(C(=O)NS(=O)(=O)N(C)C)cs2)cc(OC)c1C` [Example 119]: the melting point fell in the range of 128 to 131 °C.

In the case of `COc1cc(C(=O)N(CCCc2ccccc2)Cc2nc(C(=O)NS(N)(=O)=O)co2)cc(OC)c1C` [Example 121], the melting point lay within 136 to 141 °C. In addition, in series [1], the IC50 turned out to be 19 nM.

As to `COc1cc(C(=O)N(CCCc2ccccc2)Cc2ccc(C(=O)NS(N)(=O)=O)o2)cc(OC)c1C` [Example 123], the IC50 in series [1] was determined as 7.5 nM. Also, in series [2], the inhibition in vivo at 0.1 mg/kg was 39%.

Regarding `C=Cc1c(OC)cc(C(=O)N(CCCc2ccccc2)Cc2nc(C(=O)NS(N)(=O)=O)cs2)cc1OC` [Example 130], the inhibition in vivo at 0.1 mg/kg in series [2] stood at 39%.

Compound `COc1cc(C(=O)N(CCCc2ccccc2)Cc2nc(C(=O)NS(N)(=O)=O)cs2)cc(OC)c1C1CC1` [Example 131] yielded a melting point of 147 to 149 °C. Also, in series [1], the IC50 amounted to 7.2 nM. For the same compound, the inhibition in vivo at 0.1 mg/kg in series [2] worked out at 38%.

`COc1cc(C(=O)N(CCCc2ccccc2)Cc2nc(C(=O)NS(N)(=O)=O)cs2)cc(OC)c1Br` [Example 132]: in series [2], the inhibition in vivo at 0.1 mg/kg worked out at 42%.

On to `CNS(=O)(=O)NC(=O)c1csc(CN(CCCc2ccsc2)C(=O)c2cc(OC)c(C)c(OC)c2)n1` [Example 137], for which, in series [1], the IC50 is 9.9 nM. The inhibition in vivo at 0.1 mg/kg in series [2] was determined as 17%.

On to `Cc1cc(C(=O)N(CCCc2ccccc2)Cc2nc(C(=O)NS(N)(=O)=O)c(Cl)s2)cc(C)c1O` [Example 147], for which, in series [1], the IC50 stood at 16 nM.

In turn, `COCc1c(OC)cc(C(=O)N(CCCc2ccccc2)Cc2nc(C(=O)NS(=O)(=O)NOC)c(C)s2)cc1OC` [Example 161] registered a melting point of 151 to 153 °C.

Take `CNS(=O)(=O)NC(=O)c1nc(CN(CCCc2ccccc2)C(=O)c2cc(OC)c(Cl)c(OC)c2)sc1Cl` [Example 162]: the inhibition in vivo at 0.1 mg/kg in series [2] was 21%.

In the case of `COc1cc(C(=O)N(CCCc2ccccc2)Cc2nc(C(=O)NS(=O)(=O)CCO)cs2)cc(OC)c1C` [Example 167], in series [1], the concentration for half-maximal inhibition (IC50) was 12 nM. In addition, in series [2], the inhibition in vivo at 0.1 mg/kg worked out at 35%.

In the case of `COc1cc(C(=O)N(CCCc2ccccc2)Cc2nc(C(=O)NS(=O)(=O)NC(C)=O)cs2)cc(OC)c1C` [Example 168, N-(acetylsulfamoyl)-2-{[(3,5-dimethoxy-4-methylbenzoyl)(3-phenylpropyl)amino]methyl}-1,3-thiazole-4-carboxamide], in series [1], the IC50 was 17 nM.

Take `COc1cc(C(=O)N(CCCc2ccccc2)Cc2nc(C(=O)NS(=O)(=O)CC(C)O)cs2)cc(OC)c1C` (stereo not drawn) [Example 175]: the IC50 in series [1] worked out at 23 nM.

For the compound `COc1ccc(C2(C(=O)N(CCCc3ccc(C)o3)Cc3nc(C(=O)NS(=O)(=O)N(C)C)c(C)s3)CC2)nc1` [Example 200], the 50% inhibitory concentration (IC50) in series [1] is 33 nM. The inhibition in vivo at 0.1 mg/kg in series [2] was found to be 31%.

In turn, `COc1ccc(C2(C(=O)N(CCCc3ccco3)Cc3nc(C(=O)NS(=O)(=O)N(C)C)c(C)s3)CC2)nc1` [Example 221] gave a melting point of 112 to 113 °C.

Regarding `COc1ccc(C2(C(=O)N(CCCc3ccco3)Cc3nc(C(=O)NS(=O)(=O)N(C)C)c(C)s3)CC2)cc1` [Example 233], the 50% inhibitory concentration (IC50) in series [1] was found to be 22 nM. In addition, the inhibition in vivo at 0.1 mg/kg in series [2] turned out to be 38%.

`COc1ccc([C@@H](O)C(=O)N(CCCc2cccs2)Cc2nc(C(=O)NS(=O)(=O)N(C)C)c(C)s2)cc1` [Example 256] displayed a melting point of 118 to 120 °C.

For `CCS(=O)(=O)NC(=O)c1nc(CN(CCCc2cccs2)C(=O)[C@H](O)c2ccc(OC)cc2)sc1C` [Example 272], the melting point was 124 to 126 °C. Moreover, the IC50 in series [1] came out at 44 nM.

`CCS(=O)(=O)NC(=O)c1nc(CN(CCCc2ccccc2)C(=O)[C@H](O)c2ccc(OC)cc2F)sc1C` [Example 278] came in with a melting point of 111 to 112 °C.

With `CNS(=O)(=O)NC(=O)c1nc(CN(CCCc2cccs2)C(=O)[C@H](O)c2ccc(OC)cc2)sc1C` [Example 283], the melting point was in the range of 106 to 109 °C. The half-inhibitory concentration (IC50) in series [1] was determined as 29 nM.

On to `COc1ccc([C@@H](O)C(=O)N(CCCc2ccccc2)Cc2nc(C(=O)NS(=O)(=O)C(C)C)c(C)s2)cc1` [Example 285], for which the melting point was in the range of 137 to 138 °C. Further, the IC50 in series [1] amounted to 32 nM.

Regarding `COc1ccc([C@@H](O)C(=O)N(CCCc2ccccc2)Cc2nc(C(=O)NS(=O)(=O)N(C)C)c(C)s2)cc1` [Example 290], the melting point fell in the range of 110 to 112 °C. Besides, the IC50 in series [1] came out at 33 nM.
